This is an account of results in paper PMC5085761 (International Journal of Molecular Sciences, 2016).

SMILES strings stand for the structures.

In one experiment the target is T1, human MRP4 (Homo sapiens, UniProt O15439).
T1 construct: purchased GenoMembrane Co., Ltd. (Kanagawa, Japan); host or cells: Sf9
T1 sequence (O15439 1-1325): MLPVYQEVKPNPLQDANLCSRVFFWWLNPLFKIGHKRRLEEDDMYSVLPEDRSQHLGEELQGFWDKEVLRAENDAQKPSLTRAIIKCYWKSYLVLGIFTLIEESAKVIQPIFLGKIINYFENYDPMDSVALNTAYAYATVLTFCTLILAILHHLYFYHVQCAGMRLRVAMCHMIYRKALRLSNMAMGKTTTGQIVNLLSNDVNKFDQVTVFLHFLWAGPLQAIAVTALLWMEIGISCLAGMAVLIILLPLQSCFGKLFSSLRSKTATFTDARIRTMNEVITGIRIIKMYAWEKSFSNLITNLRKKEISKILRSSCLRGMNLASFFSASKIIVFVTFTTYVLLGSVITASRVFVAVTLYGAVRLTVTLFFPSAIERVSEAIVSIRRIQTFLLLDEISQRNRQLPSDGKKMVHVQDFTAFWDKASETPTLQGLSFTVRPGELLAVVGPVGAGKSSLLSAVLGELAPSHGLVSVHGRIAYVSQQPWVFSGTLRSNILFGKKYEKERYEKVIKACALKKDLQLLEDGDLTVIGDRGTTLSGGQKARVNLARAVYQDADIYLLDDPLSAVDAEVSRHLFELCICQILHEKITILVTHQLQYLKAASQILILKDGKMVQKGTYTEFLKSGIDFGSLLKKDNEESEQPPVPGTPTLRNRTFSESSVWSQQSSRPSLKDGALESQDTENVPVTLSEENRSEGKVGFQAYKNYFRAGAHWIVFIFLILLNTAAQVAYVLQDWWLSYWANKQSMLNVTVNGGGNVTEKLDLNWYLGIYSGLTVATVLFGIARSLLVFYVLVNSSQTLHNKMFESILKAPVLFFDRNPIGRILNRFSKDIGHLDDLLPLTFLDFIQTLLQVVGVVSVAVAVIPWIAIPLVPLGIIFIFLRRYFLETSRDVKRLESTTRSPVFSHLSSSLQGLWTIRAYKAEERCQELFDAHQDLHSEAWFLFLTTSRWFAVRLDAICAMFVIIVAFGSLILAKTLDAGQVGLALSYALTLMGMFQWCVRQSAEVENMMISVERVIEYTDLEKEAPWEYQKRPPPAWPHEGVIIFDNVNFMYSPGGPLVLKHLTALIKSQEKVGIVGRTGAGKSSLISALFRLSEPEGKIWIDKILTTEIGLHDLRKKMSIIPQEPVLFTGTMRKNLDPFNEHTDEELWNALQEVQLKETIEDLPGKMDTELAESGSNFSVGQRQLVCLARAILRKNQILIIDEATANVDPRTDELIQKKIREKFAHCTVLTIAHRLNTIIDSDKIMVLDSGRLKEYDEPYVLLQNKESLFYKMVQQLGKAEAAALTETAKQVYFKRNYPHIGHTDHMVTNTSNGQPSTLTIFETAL
Kind of experiment: Inhibition of tracer uptake in MRP4-expressing vesicles. The experiment is classed as in vitro ADME. Conditions: MRP4, tracer [3H]E2G 10 µM. The protocol: For ABC transporters, experimental kits containing Sf9-derived vesicles with high expression levels of human P-gp, MRP4, BCRP, and each ABC transporter (including buffer, ATP/AMP solution, and glutathione) were purchased from GenoMembrane Co., Ltd. (Kanagawa, Japan).
Vesicular transport assays were carried out according to the manufacturer’s protocol. […] The reaction was started by suspending 50 μg of vesicles (10 μL) in 40 μL of the reaction buffer. After incubation for an appropriate period of time, the reaction was stopped by the addition of ice-cold stop buffer (40 mM MOPS-Tris and 70 mM KCl; pH 7.0), after which the solution was filtered through a 0.45 μm HA filter (Millipore Corp., Billerica, MA, USA) using suction, and was washed twice in 5 mL of ice-cold stop buffer. The radioactivity of the filter was measured with a Tri-Carb 2910TR liquid scintillation counter (PerkinElmer) using Ultima Gold (PerkinElmer). The amount of tracer uptake was normalized to the membrane protein amount described in the product information sheets.

The next experiment has as its target T2, OCT2 (Homo sapiens, UniProt O15244).
T2 construct: host or cells: HEK293
T2 sequence (O15244 1-555): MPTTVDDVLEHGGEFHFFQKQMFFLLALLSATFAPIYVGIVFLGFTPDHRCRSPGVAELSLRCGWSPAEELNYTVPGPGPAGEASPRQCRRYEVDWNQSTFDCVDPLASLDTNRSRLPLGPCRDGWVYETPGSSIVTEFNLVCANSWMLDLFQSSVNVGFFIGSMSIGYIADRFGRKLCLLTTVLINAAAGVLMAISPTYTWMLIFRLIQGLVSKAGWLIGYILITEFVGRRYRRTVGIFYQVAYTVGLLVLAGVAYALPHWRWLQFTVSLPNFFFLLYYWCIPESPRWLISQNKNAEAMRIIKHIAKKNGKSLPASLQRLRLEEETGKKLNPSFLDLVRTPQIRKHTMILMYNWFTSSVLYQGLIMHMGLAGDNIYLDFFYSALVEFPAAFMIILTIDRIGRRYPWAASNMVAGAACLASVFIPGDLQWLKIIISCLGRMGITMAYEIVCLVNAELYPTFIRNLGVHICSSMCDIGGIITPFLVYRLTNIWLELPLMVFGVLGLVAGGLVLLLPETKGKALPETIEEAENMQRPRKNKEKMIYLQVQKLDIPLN
The experiment in a line: Inhibition of tracer uptake in OCT2-expressing cells. It is filed as in vitro ADME. To be noted: OCT2, tracer [14C]metformin 10 µM.

As a reminder, the IC50 is the concentration that inhibits the measured activity by half. A higher IC50 goes with lower potency. Consider `N[C@]1(C(=O)O)C[C@@H](F)C1` [fluciclovine], for which the figures for the IC50 against human MRP4 and against OCT2 were 9.28 ± 1.9 mM and 8.95 ± 1.96 mM, respectively.
